Test results as given in PubChem BioAssay (NCI).
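Cells were grown in 96-well plates and exposed to each compound for 48 hours at five concentrations; endpoints were interpolated linearly between bracketing concentrations, or set to the highest concentration if not reached. GI50: concentration for 50% inhibition of growth. TGI: total growth inhibition.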

Experiments:
Test in all cases: NCI tumour cell line growth inhibition, 48 h
786-0 renal = test system: 786-0 renal
ACHN renal = test system: ACHN renal
CAKI-1 renal = test system: CAKI-1 renal
HCT-116 colon = test system: HCT-116 colon
OVCAR-3 ovarian = test system: OVCAR-3 ovarian
SN12C renal = test system: SN12C renal
UACC-62 melanoma = test system: UACC-62 melanoma
K-562 leukemia = test system: K-562 leukemia
SNB-19 CNS = test system: SNB-19 CNS
T-47D breast = test system: T-47D breast

Row | Structure (SMILES) | TGI (786-0 renal) [µM] | TGI (ACHN renal) [µM] | TGI (CAKI-1 renal) [µM] | TGI (HCT-116 colon) [µM] | TGI (OVCAR-3 ovarian) [µM] | TGI (SN12C renal) [µM] | TGI (UACC-62 melanoma) [µM] | TGI (K-562 leukemia) [µM] | TGI (SNB-19 CNS) [µM] | TGI (T-47D breast) [µM] | GI50 (ACHN renal) [µM] | GI50 (CAKI-1 renal) [µM] | GI50 (HCT-116 colon) [µM] | GI50 (K-562 leukemia) [µM] | GI50 (OVCAR-3 ovarian) [µM] | GI50 (SNB-19 CNS) [µM] | GI50 (T-47D breast) [µM] | GI50 (SN12C renal) [µM] | GI50 (UACC-62 melanoma) [µM]
1 | COC(=O)[C@]1(c2cc3ccccc3n2S(=O)(=O)c2ccccc2)CC2CN(C(=O)OCc3ccccc3)C1C1OC(C)(C)OC21 (some centres undefined) | > 100 | > 100 | > 100 | > 100 | > 100 | > 100 | > 100 | – | – | – | – | – | – | – | – | – | – | – | –
2 | O=C(O)c1c(CC(Cc2ccc3c(c2)CCC3)C(=O)O)ccc2c1CCC2 (centres undefined) | > 100 | > 100 | > 100 | > 100 | > 100 | > 100 | – | > 100 | > 100 | – | – | – | – | – | – | – | – | – | –
3 | COC(=O)c1c2c(cc3c1CC1(Cc4cc5c(c(C=O)c4C1)CCC5)C3)CCC2 (centres undefined) | > 100 | > 100 | > 100 | 60 | 99.2 | – | – | > 100 | > 100 | > 100 | – | – | – | – | – | – | – | – | –
4 | O=P1(N(CCCl)CCCl)Oc2ccc(Cl)cc2C(C(Cl)(Cl)Cl)c2cc(Cl)ccc2O1 (centres undefined) | 30.7 | > 100 | > 100 | 15.9 | 24.3 | 57.6 | 26.7 | > 100 | – | > 100 | – | – | – | – | – | – | – | – | –
5 | COc1ccc(N2C(=O)C3c4[nH]c5c(C)cccc5c4C4CCC(C(C)C)CC4C3C2=O)cc1 (centres undefined) | 19.5 | 47.2 | 37.6 | – | 28.4 | 98 | – | 5.86 | > 100 | 48.6 | – | – | – | – | – | – | – | – | –
6 | O=C1c2cc3c(cc2-c2c1c1cc(F)c(F)cc1c(=O)n2CCCn1ccnc1)OCO3 | – | 0.134 | 1.42 | 10.8 | 1.52 | – | – | > 100 | > 100 | 0.0577 | < 0.01 | < 0.01 | < 0.01 | 0.0441 | 0.116 | < 0.01 | < 0.01 | – | –
7 | COc1ccc(CCNC(=O)Cc2ccccc2CO)cc1OC | > 100 | > 100 | > 100 | > 100 | > 100 | > 100 | > 100 | > 100 | – | > 100 | – | – | – | – | – | – | – | – | –
8 | CC1=C(C)C(=O)C(C2=CC(=O)c3ccccc3C2=O)=C(C2=CC(=O)c3ccccc3C2=O)C1=O | > 58.1 | 14.9 | 8.86 | > 100 | – | – | 27.6 | – | > 36.5 | 45.1 | – | – | – | – | – | – | – | – | –
9 | O=C(Nc1ccccc1)N1CCN(C(=O)Nc2ccccc2)C1=S | > 100 | > 100 | > 100 | > 100 | > 100 | > 100 | – | > 100 | – | > 100 | – | – | – | – | – | – | – | – | –
10 | CC(=O)C(=Cc1cn(C)c(=O)n(C)c1=O)C(C)=O | – | – | 224 | 188 | 299 | 216 | 148 | 465 | 414 | – | – | – | – | – | – | – | – | – | –
11 | NC(=O)CCC(N=c1c2ccccc2n(O)c2ccccc12)C(=O)O (centres undefined) | > 100 | > 100 | – | > 100 | > 100 | > 100 | > 100 | > 100 | > 100 | – | – | – | – | – | – | – | – | – | –
12 | CCOC(=O)NC(=S)N(CC(=O)c1cc(OC)c(OC)c(OC)c1)c1ccc(Cl)cc1 | – | > 100 | > 100 | > 100 | > 100 | > 100 | > 100 | > 100 | > 100 | 72.9 | > 100 | 63.5 | 72.3 | 51.8 | > 100 | > 100 | 23.5 | > 100 | 55.2
13 | N[C@@H](CCC(=O)NC(Cc1ccccc1)C(=O)NCP(=O)(O)O)C(=O)O (some centres undefined) | > 100 | > 100 | – | > 100 | > 100 | > 100 | > 100 | > 100 | > 100 | > 100 | – | – | – | – | – | – | – | – | –
14 | O=C1NC(O)c2cc3ccccc3cc2O1 (centres undefined) | > 100 | > 100 | – | 51.1 | 88.5 | > 100 | 48.5 | > 100 | > 100 | > 100 | – | – | – | – | – | – | – | – | –
15 | COP(=O)(OC)OCN(C)CC/C=C(\C)CC/C=C(\C)CCC=C(C)C | 31.3 | 64.2 | 33.8 | 25.9 | 29.9 | 32.1 | – | 20.6 | 25.6 | 43.9 | – | – | – | – | – | – | – | – | –
16 | CC(C)(C)C(=O)Nc1c(C=O)ccc2[nH]cnc12 | > 100 | > 100 | > 100 | > 100 | > 100 | > 100 | – | > 100 | > 100 | > 100 | – | – | – | – | – | – | – | – | –
17 | Cc1ccccc1NC(=O)CSc1nnc(-c2ccc(N=Cc3ccc(Cl)cc3)cc2)o1 | > 100 | > 100 | – | > 100 | – | > 100 | > 100 | > 100 | > 100 | – | – | – | – | – | – | – | – | – | –
18 | N#Cc1nc(CCc2nc(C#N)c(N)o2)oc1N | > 10 | > 10 | > 10 | > 10 | – | > 10 | > 10 | > 10 | > 10 | > 10 | – | – | – | – | – | – | – | – | –
19 | CC1=C(CO)C(=O)OC(C(C)C2CCC3C4CC5OC56C(O)C(N5CC5)=CC(=O)C6(C)C4CCC23C)C1 (centres undefined) | 17.8 | 19.5 | – | 12.2 | 11.7 | 19.5 | 23.8 | 14.2 | 9.56 | – | – | – | – | – | – | – | – | – | –
20 | CC(C)(C)C1CCC2c3c([nH]c4ccccc34)C3C(=O)N(c4ccc([N+](=O)[O-])cc4)C(=O)C3C2C1 (centres undefined) | 18.9 | > 100 | – | 22.6 | 28.4 | 20.8 | 39 | 55.3 | 67.5 | > 100 | – | – | – | – | – | – | – | – | –
21 | CCN1CC2(C)CCC(OC)C34C5CC6CCC(O)(C5C(=O)O6)C(C(O)C23)C14 (centres undefined) | > 100 | > 100 | > 100 | > 100 | > 100 | – | > 100 | > 100 | > 100 | > 100 | – | – | – | – | – | – | – | – | –
22 | CC(Nc1ccc(Cl)cc1)c1ccncc1 (centres undefined) | > 100 | > 100 | > 100 | > 100 | > 100 | > 100 | – | > 100 | > 100 | > 100 | – | – | – | – | – | – | – | – | –
23 | CC(C)CCCC(C)[C@H]1CCC(C2C[C@@H](O)[C@@H]3CC(O)[C@@H](O)C[C@]3(CO)C2=O)[C@]1(C)CCO (some centres undefined) | – | – | – | 38.2 | 47.9 | > 74.1 | 34.5 | 61.2 | 96.3 | – | – | – | – | – | – | – | – | – | –
